“Also recorded” adds a separate entry of the source.
Tests used:
IRS-1 in L6 IR-A cells = assay: IRS-1 activation time-course (immunoprecipitation, pTyr20); assay type: cell-based, rat cells; human IR-A; conditions: 10 nM
Method: (§1) Figure 6 Cis-dicarba analogues are incapable of promoting IR-A internalization due to inability to promote phosphorylation of IR-A, IRS-1 and Shc. […] Data are presented as % of surface receptor/total receptor followed by normalisation with % of surface receptor in SFM at t = 0; i.e. SFM at t = 0 is equivalent to 100%. […] All data are the mean ± S.E.M. n = at least 3 independent experiments. Error bars are shown when greater than the size of the symbols. Statistical significance were determined via one-way repeated measures ANOVA followed by Dunnets multiple test.
Activated IRS-1 was determined using immunoprecipitation. Anti-IRS-1 antibody(4ug) was pre incubated with protein G agarose overnight at 4°C before adding to lysates to immunoprecipitate IRS-1 overnight at 4°C. Complexes were washed three times in PBS, boiled under reducing conditions and samples separated on 10% glycine gels. Transferred blots were blocked for 1 h at room temperature in TBST containing 3% BSA and probed with primary antibodies (anti-IRS-1 for total IRS-1 protein, or anti pTyr20 for total phosphorylated protein in immunoprecipitation) in blocking solution (TBST containing 3% BSA) overnight at 4°C. Blots were washed six times for 5 min each in TBST then probed with fluorophore-conjugated secondary antibodies (donkey anti-mouse 680RD and anti- rabbit 800CW) for 1 hour at room temperature. […]

[1] = biological target: T1, IR-A (phospho-Tyr1150/Tyr1151) (Homo sapiens, UniProt P06213); assay: IR-A phosphorylation Tyr1150/Tyr1151 time-course (western blot); assay type: cell-based; conditions: L6 IR-A, 10 nM, 0–10 min
T1 construct: expressed in transfected cells; host or cells: L6 rat skeletal myoblasts over-expressing human IR-A (hIR-A L6), from Novo Nordisk
Description: (§2) All data are the mean ± S.E.M. n = at least 3 independent experiments. Error bars are shown when greater than the size of the symbols.

[2] = test system: ERK 1 / ERK 2 / p90RSK phosphorylation in L6 IR-A cells; assay: Western blot dose-response, MAPK pathway (ERK1, ERK2, p90RSK), L6 IR-A; assay type: cell-based, rat cells; human IR-A
Method: (§5) R/^-IR-B (80,000 cells/well) or L6 IR-A cells (240,000 cells/well) were seeded in 6-well plates and allowed to grow to confluence (~ 48 hours). Prior to stimulation, cells were serum starved in SFM/1% BSA for 4 h. […] Lysates were scraped from the well, spun at 13,000 rpm for 3 min at 0°C to remove cell debris and stored at -80°C. Lysate protein concentrations were quantified using Bio-Rad DC™ Protein Assay and 20μg of each sample was separated in 10% glycine gels under reducing conditions. Transferred blots were blocked for 1 h at room temperature in TBST containing 3% BSA and probed with primary antibodies (Pathscan Antibody, pAkt(Thr308), pGSK(Ser9), pAS160(Thr642)) in blocking solution (TBST containing 3% BSA) overnight at 4°C. All blots were also probed with anti-β-tubulin as a loading control. Blots were washed six times for 5 min each in TBST then probed with either HRP-conjugated (dose-response) or fluorophore-conjugated (time-course) secondary antibodies for 1 hour at room temperature. The washing was then repeated.
(§6) Dose response blots were developed in ECL reagent according to manufacturer’s instruction and imaged in Fujiflim LAS-4000 Luminescent Image Analyzer. […] All blots were performed at least three times. All data were analysed with LI-COR Image Studio™ software and each band intensity was normalized to tubulin of its respective lane.

IR-B = conditions: ref [9]; cited from earlier work
Description: (§3) This contrasts with cis-dicarba insulin which wa ...

IGF-1R [3] = biological target: T2, IGF-1R (Homo sapiens, UniProt P08069); conditions: ref [9]; cited from earlier work
T2 construct: expressed in transfected cells; host or cells: P6 cells (BALB/c3T3 mouse fibroblasts overexpressing human IGF-1R); Triton X-100 lysate captured on anti-IGF-1R antibody 24-31
Description: as §3

[4] = test system: Akt / GSK-3β / S6 phosphorylation in L6 IR-A cells; assay: Western blot time-course, PI3K/Akt pathway, L6 IR-A; assay type: cell-based, rat cells; human IR-A; conditions: 10 nM, 0–30 min, p-Akt Ser473, p-Akt Thr308, p-GSK3β, p-S6
Method: as §5
(§7) Dose response blots were developed in ECL reagent according to manufacturer’s instruction and imaged in Fujiflim LAS-4000 Luminescent Image Analyzer. Time course blots were imaged with an Odyssey® CLx Imaging System. All blots were performed at least three times. All data were analysed with LI-COR Image Studio™ software and each band intensity was normalized to tubulin of its respective lane.

IR [5] = conditions: KIRA; compared to insulin; ref [9]; cited from earlier work
Description: This is similar to the poorly mitogenic S597 peptide, which also promoted slowe ...

[6] = test system: Akt / GSK-3β / S6 / AS160 phosphorylation in L6 IR-A cells; assay: Western blot dose-response, PI3K/Akt pathway (Akt, GSK-3β, S6, AS160), L6 IR-A; assay type: cell-based, rat cells; human IR-A
Method: as §5, §6

[7] = test system: L6 rat skeletal myoblasts overexpressing human IR-A (L6 IR-A cells); assay: DNA synthesis assay (EdU incorporation); assay type: cell-based; conditions: 18 h, 0.01 - 300 nM, compared to native insulin
Method: (§4) Assays were performed in triplicate in at least three independent experiments.

IR isoform B (IR-B) = biological target: T3, IR isoform B (IR-B) (Homo sapiens, UniProt P06213); conditions: cis dicarba insulin, footnote b, ref [9], cited from earlier work
T3 construct: expressed in transfected cells; host or cells: R-IR-B cells (IGF-1R knockout mouse embryonic fibroblasts over-expressing human IR-B); Triton X-100 lysate captured on anti-IR antibody 83-7

[8] = test system: ERK 1/2 / p90RSK phosphorylation in L6 IR-A cells; assay: Western blot time-course, MAPK pathway, L6 IR-A; assay type: cell-based, rat cells; human IR-A; conditions: 10 nM, 0–30 min
Method: as §5, §7

mitogenic signalling = conditions: ref [9], [30]; cited from earlier work
IR [9] = conditions: ref [9], [30]; cited from earlier work
[10] = test system: ERK 1 / ERK 2 / p90RSK phosphorylation in R^-IR-B cells; assay: Western blot dose-response, MAPK pathway, R-IR-B fibroblasts; assay type: cell-based, mouse cells; human IR-B; conditions: 0.1–100 nM, 10 min, 2-way ANOVA
Method: (§8) R/^-IR-B (80,000 cells/well) or L6 IR-A cells (240,000 cells/well) were seeded in 6-well plates and allowed to grow to confluence (~ 48 hours). Prior to stimulation, cells were serum starved in SFM/1% BSA for 4 h. […] Lysates were scraped from the well, spun at 13,000 rpm for 3 min at 0°C to remove cell debris and stored at -80°C. Lysate protein concentrations were quantified using Bio-Rad DC™ Protein Assay and 20μg of each sample was separated in 10% glycine gels under reducing conditions. Transferred blots were blocked for 1 h at room temperature in TBST containing 3% BSA and probed with primary antibodies (Pathscan Antibody, pAkt(Thr308), pGSK(Ser9), pAS160(Thr642)) in blocking solution (TBST containing 3% BSA) overnight at 4°C. […]
(§9) Phosphorylation levels are expressed as percentage of level detected […]
(§10) were determined via 2-way ANOVA (bars above graph); difference comparing each stimulating concentration (pink asterisks) were further analyzed using Holm-Sidak test. ns: non-significant; * (P ≤ 0.05), ** (P ≤ 0.01); *** (P ≤ 0.001); **** (P ≤ 0.0001).

[11] = test system: Akt / GSK-3β / S6 / AS160 phosphorylation in R^-IR-B cells; assay: Western blot dose-response, PI3K/Akt pathway, R-IR-B fibroblasts; assay type: cell-based, mouse cells; human IR-B; conditions: 10 min, significant difference only at 0.1 nM (p* ≤ 0.05 to p** ≤ 0.01)
Method: as §8, §9, §10

IR-A = IR-A receptor internalization; assay type: cell-based, human; conditions: 10 nM, 2 hours post-stimulation
Method: as §2, §4

metabolic activity = conditions: ref [9], [30]; cited from earlier work
[12] = test system: p52 Shc (phospho-Tyr239/Tyr240) in L6 IR-A cells; assay: p52 Shc phosphorylation time-course (western blot); assay type: cell-based, rat cells; human IR-A; conditions: 10 nM
Method: as §1
R/^-IR-B (80,000 cells/well) or L6 IR-A cells (240,000 cells/well) were seeded in 6-well plates and allowed to grow to confluence (~ 48 hours). Prior to stimulation, cells were serum starved in SFM/1% BSA for 4 h. […] Lysates were scraped from the well, spun at 13,000 rpm for 3 min at 0°C to remove cell debris and stored at -80°C. Lysate protein concentrations were quantified using Bio-Rad DC™ Protein Assay and 20μg of each sample was separated in 10% glycine gels under reducing conditions. […]
Dose response blots were developed in ECL reagent according to manufacturer’s instruction and imaged in Fujiflim LAS-4000 Luminescent Image Analyzer. […] All data were analysed with LI-COR Image Studio™ software and each band intensity was normalized to tubulin of its respective lane.

IGF-1R [13] = biological target: T2, IGF-1R; conditions: cis dicarba insulin, footnote b; ref [9]; cited from earlier work
NIH3T3-L1 adipocytes = assay: Glucose uptake assay (2-deoxyglucose); assay type: cell-based; conditions: paired T-test; n = at least 3
Method: NIH3T3-L1 myoblasts (up to passage 20) grown in DMEM supplemented with 10% newborn calf serum, 2mM L-glutamine, 100 U/l penicillin, 100 µg/L streptomycin at 37°C were seeded into 24-well plates at 5 x 10^3 cells/well and grown for 8 days to confluence. They were then differentiated into adipocytes as described in Govers et al. ([51]). After differentiation the NIH3T3-L1 cells express 37,000 IGF-1R and 250,000 IR per cell ([52]). […] Briefly, 3T3-L1 adipocytes were serum starved in SFM/1% BSA for 4 h, washed twice with Krebs-Ringer phosphate buffer (KRP; 12.5mM HEPES, 120mM NaCl, 6mM KCl, 1.2mM MgSO4, 1mM CaCl2, 0.4mM Na2HPO4, 0.6mM Na2HPO4 (pH7.4)) containing 1% BSA and incubated for 15min at 37°C. […] For the final 10 min 2-deoxyglucose (DOG) uptake was initiated by the addition of 50 µM cold deoxyglucose and 1 µCi ^3H –deoxyglucose per well. The assay was terminated by rapidly washing the cells three times with ice-cold KRP buffer. Cells were solubilized in 0.5 M NaOH/0.1% SDS and ^3H content was determined by scintillation counting. Nonspecific 2-DOG uptake was determined in the presence of 50μM cytochalasin B. Assays were performed in triplicate in at least three independent experiments.

C57BL6 male mice = assay: Insulin tolerance test; assay type: in vivo, mouse; conditions: 0.75 IU/kg ip
[14] = dose-response, compared to insulin

For “cis-[Δ^4A6,11]-dicarba human insulin [cis dicarba insulin]”, the “IRS-1 activation (in words)” value (IRS-1 in L6 IR-A cells) was “significantly less potent in activating both IRS-1 and Shc”, the “IRS-1 activation relative to insulin” value (IRS-1 in L6 IR-A cells; 0–10 min, compared to insulin) was ~ 30% and the “IR-A Tyr1150/Tyr1151 phosphorylation (in words)” value [1] was “much slower to stimulate receptor activation; also recorded: reduced kinetics of activation compared to insulin”. The “IR-A Tyr1150/Tyr1151 phosphorylation, response relative to insulin” value ([1]; % of that of insulin) was ~ 20%, the “phosphorylation of ERK 1, ERK 2 and p90RSK (in words)” value ([2]; 0.1–10 nM, t = 10 min, p* ≤ 0.05 to p**** ≤ 0.0001 vs parent) was “significantly reduced phosphorylation levels of ERK 1, ERK 2 and p90RSK” and the “p-p90RSK (S380), overall significance vs parent” value ([2]; L6 IR-A, 0.1–100 nM, 10 min, 2-way ANOVA) was “* (P ≤ 0.05)”. For the same substance, the “MAPK pathway activation (in words)” value [2, 14] was “significantly less effective than insulin or glargine, respectively, in activating the MAPK pathway; also recorded: significantly less potent at activating the MAPK pathway”, the “binding and activation of IR-B (in words)” value (IR-B) was “equipotent to insulin in both binding and activation of IR-B and IGF-1R” and the “binding and activation of IGF-1R (in words)” value (IGF-1R [3]) was “equipotent to insulin in both binding and activation of IR-B and IGF-1R”. For the same substance, the “kinetics of activation of the PI3K/Akt pathway (in words)” value [4] was “essentially the same”, the “total receptor phosphorylation in kinase receptor activation assay (in words)” value (IR [5]) was “almost as potent as insulin in a kinase receptor activation assay” and the “Akt phosphorylation at Ser473 (in words)” value ([6]; L6 IR-A, 10 min, significant difference only at 0.1 nM (p* ≤ 0.05 to p** ≤ 0.01)) was “generally similar to their parent peptides”. The “PI3K/Akt pathway activation (in words)” value [6, 14] was “equal potency in activating the PI3K/Akt pathway”, the “DNA synthesis, fold reduction in mitogenic potency vs native insulin” value [7] was ~ 5 fold and the “Affinity (% Insulin ± SEM), IR-B” value (IR isoform B (IR-B); non-statistically significant) was 100 % Insulin. The IC50 (IR isoform B (IR-B)) was 1.07 ± 0.3 nM, the “MAPK signalling activation, ERK1/2 and p90RSK (in words)” value ([8]; compared to parent) was “lower level of activation of MAPK signalling” and the “ERK 1/2 phosphorylation maximal level (in words)” value ([8]; compared to parent peptides) was “never achieved the maximal level attained through stimulation by their corresponding parent peptides”. For the same substance, the “mitogenic response (in words)” value (mitogenic signalling) was “poor at activating a mitogenic response”, the “IR binding (in words)” value (IR [9]) was “binds the IR with equal affinity to insulin” and the “p-Erk 1 (T202/Y204), overall significance vs parent” value [10] was “* (P ≤ 0.05)”. The “Akt phosphorylation at Ser473 (in words)” value [11] was “generally similar to their parent peptides”, the “IR-A internalization (in words)” value (IR-A) was “significantly impaired ability to promote IR-A internalization, with virtually all receptor remaining on the surface 2 hours post-stimulation; also recorded: ineffective in promoting IR internalisation” and the “metabolic activity (in words)” value (metabolic activity) was “promotes equivalent metabolic activity”. For the same substance, the “Shc activation (in words)” value [12] was “significantly less potent in activating both IRS-1 and Shc”, the “Shc activation relative to insulin” value ([12]; 0–10 min, compared to insulin) was ~ 30% and the “Affinity (% Insulin ± SEM), IGF-1R” value (IGF-1R [13]) was about 100 % Insulin. For the same substance, the IC50 (IGF-1R [13]) was over 300 nM, the “glucose uptake, significance of difference between insulin, cis-dicarba insulin and cis-dicarba glargine” value (NIH3T3-L1 adipocytes) was “ns” and the “blood glucose lowering (in words)” value (C57BL6 male mice; chow fed mice, non-fasting, 2 hours post-treatment) was “no statistical difference”. For the same substance, the “blood glucose change, significance vs parent (AUC)” value (C57BL6 male mice; insulin vs cis-dicarba insulin, glargine vs cis-dicarba glargine, paired T-test, n = 5-6 per group) was “ns”.

— publication PMC9271792 (Frontiers in Endocrinology, 2022)
